Data reported in patent US7320989B2, “Pyridine, pyrimidine, quinoline, quinazoline, and naphthalene urotensin-II receptor antagonists” (Encysive Pharmaceuticals, Inc., priority 2003, dated 2008).
pIC50: −log10 of the molar value.

Molecular target: T1, human urotensin-II receptor (UTR cells) (Homo sapiens, UniProt Q9UKP6)
T1 construct: host or cells: 'UTR cells': TE-671 rhabdomyosarcoma cells (endogenous) or CHO cells stably expressing recombinant UTR
T1 sequence (Q9UKP6 1-389): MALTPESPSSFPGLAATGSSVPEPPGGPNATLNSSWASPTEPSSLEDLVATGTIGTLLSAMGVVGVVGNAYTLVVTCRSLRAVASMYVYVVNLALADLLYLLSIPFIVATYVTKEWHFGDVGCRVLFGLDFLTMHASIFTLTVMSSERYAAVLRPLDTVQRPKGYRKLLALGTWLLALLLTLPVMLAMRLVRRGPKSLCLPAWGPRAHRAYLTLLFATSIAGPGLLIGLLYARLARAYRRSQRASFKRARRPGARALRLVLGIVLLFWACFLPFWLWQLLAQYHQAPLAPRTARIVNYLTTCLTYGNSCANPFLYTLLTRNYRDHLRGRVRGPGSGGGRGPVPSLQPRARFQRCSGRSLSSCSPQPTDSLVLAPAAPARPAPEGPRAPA
Test: Inhibition of human urotensin-II-induced Ca2+ mobilization in UTR cells
Format: cell-based
Details: inhibition of signal induced by 1 nM human U-II, fluo-4AM, FlexStation
Method: 1) Inhibition of Human Urotensin-II-Induced Ca^2+ Mobilization in UTR Cells:
The function of urotensin-II was determined by measuring ligand-induced mobilization of intracellular Ca^2+ in a FlexStation scanning fluorometer (Molecular Devices). UTR cells were plated overnight at 50,000 cells/well in 96-well black/clear plates (Costar brand, Fisher 07-200-588). Cells were labeled with fluo-4AM dye (Molecular Probes, F-14201) in Hank's balanced salt solution (HBSS), 20 mM HEPES, 25 mM probenecid, pH 7.4, and then were washed with buffer. During the assay, cells were continuously monitored in the FlexStation and exposed to test compounds at a final concentration of 0.1% DMSO, followed by the addition of 1 nM human U-II. Fluorescence was read every 2 seconds for 2 minutes. The excitation and emission wavelengths used were 485 nm and 525 nm. Inhibition of the urotensin-II-induced signal was calculated using a nonlinear least square fitting program.

pIC50: 5.19
Compound: CN(C)CCOc1cc(Nc2ccnc3cc(C(F)(F)F)ccc23)ccc1Cl [Example 7, (4-chloro-3-(2-dimethylamino-ethoxy)-phenyl)-(7-trifluoromethyl-quinolin-4-yl)-amine]
